In US5236926A, “9-substituted-8-halo or -8-hydroxy-9-deazaguanines as inhibitors or PNP for pharmaceutical compositions” (Warner-Lambert Company, priority 1992, dated 1993):

Legend:
[1] = molecular target: T1, purine nucleoside phosphorylase (PNP-4) (Homo sapiens, UniProt P00491); assay: PNP-4 enzyme assay (radiochemical, [14C]-hypoxanthine formation from [14C]inosine); assay type: biochemical; settings: human erythrocyte as enzyme source; activity table
T1 construct: using human erythrocyte as the enzyme source; from tissue; host or cells: human erythrocyte
T1 sequence (P00491 1-289): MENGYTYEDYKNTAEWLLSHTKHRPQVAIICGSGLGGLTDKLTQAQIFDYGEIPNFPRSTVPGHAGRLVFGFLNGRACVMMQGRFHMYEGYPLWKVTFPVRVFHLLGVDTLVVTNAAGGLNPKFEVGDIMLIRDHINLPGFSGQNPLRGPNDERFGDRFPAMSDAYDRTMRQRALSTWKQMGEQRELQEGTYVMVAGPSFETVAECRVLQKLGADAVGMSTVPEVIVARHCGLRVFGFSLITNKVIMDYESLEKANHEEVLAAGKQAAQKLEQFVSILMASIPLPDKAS
Procedure: In the purine nucleoside phosphorylase (PNP-4) enzyme assay, an IC50 is achieved at a dose of about from 0.9 to 3.18 micromoles on selected compounds of the present invention. PNP-4 activity for the compounds of Formula I is measured radiochemically by measuring the formation of [^14 -C]-hypoxanthine from [^14 -C]inosine [Biomedicine 33:39 (1980)]using human erythrocyte as the enzyme source. An in vivo inhibition of purine nucleoside phosphorylase (HPLC-1) enzyme assay is used essentially as disclosed in the Annals of New York Academy of Sciences 451:313 (1985) to further show the activity of the compounds of Formula I of the present invention. […] Since removal of T-cells or modulation of T-cells are beneficial in the treatment of autoimmune diseases, these compounds being selectively cytotoxic to T-cells will, therefore, be useful in their treatment. […] Clinically it has been shown that modulation and/or removal of T-cells by thoracic duct drainage, lymphapheresis, or total lymphoid irradiation gave partial to complete relief from rheumatoid arthritis in patients who were totally refractory to other forms of therapy [A. Tanay, et al, Arthritis and Rheumatism 30(1):1 (1987); S. Strober, et al, Annual of Internal Medicine V-102(4):441-449 (1985); H. G. Nusslein, et al, Arthritis and Rheumatism V-28(11):1205-1210 (1985); E. Brahn, et al, ibid V-27(5):481-487 (1984); and J. Karsh, et al, ibid V 24(7):867-873. (1981)]. […] N. Ellis, et al, JAMA V-256( 22):3110-3116 (Dec. 12, 1986).

[2] = test system: skin graft in dogs; settings: cited from earlier work

IC50 [1]	SMILES	inhibition of rejection of skin graft [2]
2770 nM	Nc1nc2c(Cc3ccsc3)c(Cl)[nH]c2c(=O)[nH]1 [Example 6, 2-Amino-6-chloro-3,5-dihydro-7-(3-thienylmethyl)-4H-pyrrolo[3,2-d]pyrimidin-4-one]	
6900 nM	Nc1nc2c(Cc3ccsc3)c(Br)[nH]c2c(=O)[nH]1 [Example 3, 2-Amino-6-bromo-3,5-dihydro-7-(3-thienylmethyl)-4H-pyrrolo[3,2-d]pyrimidin-4-one]	
	Nc1nc2c(nc(N)n2[C@@H]2O[C@H](CO)[C@@H](O)[C@H]2O)c(=O)[nH]1 [8-Aminoguanosine]	efficacious for inhibiting rejection of skin graft in dogs
> 30000 nM	Nc1nc2c(Cc3ccsc3)c(I)[nH]c2c(=O)[nH]1 [Example 5]	
150 nM	Nc1nc2c(Cc3ccsc3)c(F)[nH]c2c(=O)[nH]1 [Example 8, 2-Amino-6-fluoro-3,5-dihydro-7-(3-thienylmethyl) 4H-pyrrolo[3,2-d]pyrimidin-4 one]	
